Patent US11103525B2, “Idoxuridine and its analogs as neuroprotectans for the treatment of parkinsonism” (priority 2017, dated 2021)

What was measured:
Type in all cases: cell-based, mouse
wildtype cells = test: Cytoprotection against MG132, wildtype cells
Method: (§1) FIG. 8: Cytoprotection of Idoxuridine against MG132. MG132-induced proteasomal inhibition reduced cell viability. […] Data represented as mean+SD. Analysis performed via one-way ANOVA with Neuman-Keuls post-test for both Figures. *** indicates p<0.001. 2 mM 4-PBA used as a positive unspecific control. MG132 is a potent 26S proteasome inhibitor which increases protein accumulation, ROS leakage, induces cell cycle arrest and apoptosis.

[1] = tested on: GPR37-tGFP overexpressing cells; test: Cytoprotection against MG132, GPR37-tGFP overexpressing cells
Method: as §1

N2a-GPR37-tGFP cells = test: Cytoprotection against 6-OHDA (MTT assay), N2a-GPR37-tGFP cells; conditions: 2 μM pretreatment 72 h, then 6-OHDA 24 h; compared with N2a-WT cells
Method: (§2) FIG. 6. GPR37-associated cytoprotection of Idoxuridine against parkinsonian drug 6-OHDA. N2a-WT and N2a-GPR37-tGFP cells were grown in differentiating medium containing either 2 μM idoxuridine, 0.1% DMSO (negative control) or 1 mM dbcAMP (positive control). 72 h later cells were treated with either 6-OHDA (10, 20, 35 100 μM) or vehicle control and incubated for 24 h. Cell viability was quantified by MTT assay. Data are pooled from three independent experiments with 6 technical replicates for each condition and are expressed as means+/−SD. To assess the […] effect of idoxuridine against 6-OHDA-toxicity data were analyzed using a 2-way ANOVA followed by a Bonferroni correction test. Each cell line was statistically analyzed separately, with pretreatment and 6-OHDA treatment as variables; or GPR37 expression and 6-OHDA-treatment as variables. For simplicity, only idoxuridine related significance is indicated; significances between positive and negative controls are not shown; ****p<0.0001, ***p<0.001, **p<0.01. Test compound (5 μL) of desired concentration (Idoxuridine, final concentration 2 μM); positive control (dibutyryl-cAMP, final concentration 1 mM); and negative control (DMSO, final concentration 0.1%) were plated in a 96-well plate. […] Absorbance was measured at 570 nm (formazan product) and at 650 nm (reference) using a Tecan Spark® 10M microplate reader. […]

[2] = tested on: GPR37-tGFP overexpressing cells; test: Cytoprotection against H2O2, GPR37-tGFP overexpressing cells; conditions: in-well H2O2 0.00025%, compared with WT cells
Description: FIG. 10: Cytoprotection of Idoxuridine against […]. H2O2 reduces cell viability by increasing oxidative stress. This effect was counteracted by idoxuridine in GPR37-tGFP overexpressing cells (A) and WT (B) cells. […] In-well H2O2 concentration used was 0.00025%. […]

[3] = tested on: GPR37-tGFP overexpressing cells; test: Cytoprotection against Eeyarestatin (EeI), GPR37-tGFP overexpressing cells
Method: (§3) FIG. 9: Cytoprotection of Idoxuridine against Eel. Eeyarestatin (Eel) is a potent inhibitor of endoplasmic reticulum associated protein degradation (ERAD) pathway, specifically targeting p97. Eel-mediated reduction of cell viability is counteracted by idoxuridine in both GPR37-tGFP overexpressing cells (A) and WT (B) cells. Data represented as mean+SD. Analysis performed via one-way ANOVA with Neuman-Keuls post-test for both Figures. *** indicates p<0.001.
(§4) Eeyarestatin (EeI) is a potent inhibitor of endoplasmic reticulum associated protein degradation (ERAD) pathway, specifically targeting p97.

N2a-WT cells = test: Cytoprotection against 6-OHDA (MTT assay), N2a-WT cells; conditions: 2 μM pretreatment 72 h, then 6-OHDA 24 h
Method: as §2

WT cells = test: Cytoprotection against Eeyarestatin (EeI), WT cells
Method: as §3, §4

For O=c1[nH]c(=O)n([C@H]2C[C@H](O)[C@@H](CO)O2)cc1I [Idoxuridine, 2′-deoxy-5-iodouridine], the “effect on MG132-induced reduction of cell viability” value (wildtype cells) was “some neuroprotection”, the “effect on MG132-induced reduction of cell viability” value [1] was “potently counteracted” and the “cytoprotective effect against 6-OHDA (cell viability, MTT)” value (N2a-GPR37-tGFP cells) was “significantly higher effect”. The “effect on H2O2-induced reduction of cell viability” value [2] was “significantly stronger”, the “effect on EeI-mediated reduction of cell viability” value [3] was “counteracted” and the “cytoprotective effect against 6-OHDA (cell viability, MTT)” value (N2a-WT cells) was “protective”. The “effect on EeI-mediated reduction of cell viability” value (WT cells) was “counteracted”.
